Experiments:
Experiment in all cases: relative viability (nuclei count vs DMSO), 5 days (fraction); higher = more cells survive
CAP-232 + Vorinostat = compound: C[C@H]([C@@H](C(=O)N)NC(=O)[C@@H]1CSSC[C@@H](C(=O)N[C@H](C(=O)N[C@@H](C(=O)N[C@H](C(=O)N1)CCCCN)CC2=CNC3=CC=CC=C32)CC4=CC=C(C=C4)O)NC(=O)[C@@H](CC5=CC=CC=C5)N)O [CAP-232] + O=C(CCCCCCC(=O)Nc1ccccc1)NO [Vorinostat] (partner 1 µM)
Method in brief: (§1)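 The day after seeding in 1536-well plates, lung cancer cell lines were treated by pin tool with a single drug, or with a fixed anchor-drug dose together with five library-drug doses (not always all listed) in √10 steps. After 5 days, a combined fix-and-stain solution (final 0.05% Triton X-100, 1% formaldehyde, 1 ug/ml Hoechst) was added. Nuclei counted on 4× images gave relative viability as treated counts over vehicle counts, reported as the median of duplicate plates.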

CAP-232 + Crizotinib = compound: C[C@H]([C@@H](C(=O)N)NC(=O)[C@@H]1CSSC[C@@H](C(=O)N[C@H](C(=O)N[C@@H](C(=O)N[C@H](C(=O)N1)CCCCN)CC2=CNC3=CC=CC=C32)CC4=CC=C(C=C4)O)NC(=O)[C@@H](CC5=CC=CC=C5)N)O [CAP-232] + C[C@@H](Oc1cc(-c2cnn(C3CCNCC3)c2)cnc1N)c1c(Cl)ccc(F)c1Cl [Crizotinib] (partner 1 µM)
Method in brief: as §1

CAP-232 + Luminespib = compound: C[C@H]([C@@H](C(=O)N)NC(=O)[C@@H]1CSSC[C@@H](C(=O)N[C@H](C(=O)N[C@@H](C(=O)N[C@H](C(=O)N1)CCCCN)CC2=CNC3=CC=CC=C32)CC4=CC=C(C=C4)O)NC(=O)[C@@H](CC5=CC=CC=C5)N)O [CAP-232] + CCNC(=O)c1noc(-c2cc(C(C)C)c(O)cc2O)c1-c1ccc(CN2CCOCC2)cc1 [Luminespib] (partner 0.01 µM)
Method in brief: as §1

CAP-232 + Linsitinib = compound: C[C@H]([C@@H](C(=O)N)NC(=O)[C@@H]1CSSC[C@@H](C(=O)N[C@H](C(=O)N[C@@H](C(=O)N[C@H](C(=O)N1)CCCCN)CC2=CNC3=CC=CC=C32)CC4=CC=C(C=C4)O)NC(=O)[C@@H](CC5=CC=CC=C5)N)O [CAP-232] + C[C@]1(O)C[C@@H](c2nc(-c3ccc4ccc(-c5ccccc5)nc4c3)c3c(N)nccn32)C1 [Linsitinib] (partner 1 µM)
Method in brief: as §1

CAP-232 = compound: C[C@H]([C@@H](C(=O)N)NC(=O)[C@@H]1CSSC[C@@H](C(=O)N[C@H](C(=O)N[C@@H](C(=O)N[C@H](C(=O)N1)CCCCN)CC2=CNC3=CC=CC=C32)CC4=CC=C(C=C4)O)NC(=O)[C@@H](CC5=CC=CC=C5)N)O [CAP-232]
Method in brief: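 Lung cancer cell lines in 1536-well plates were kept overnight at 37 °C, then pinned with five library-drug doses (not always all listed) spaced by √10 on vehicle-anchored plates. After 5 days without medium change, cells were fixed, permeabilised and Hoechst-stained in one step, imaged at 4×, and nuclei were counted with MetaXpress. Viability is treated-well nuclei divided by vehicle-well nuclei, taken as the median over plates. Plates passed only with control CV below 25% and at least one doubling.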

Row | Cell Line | relative viability (CAP-232 + Vorinostat; first compound 0.4 µM) | relative viability (CAP-232 + Vorinostat; first compound 1.265 µM) | relative viability (CAP-232 + Vorinostat; first compound 4 µM) | relative viability (CAP-232 + Vorinostat; first compound 12.65 µM) | relative viability (CAP-232 + Crizotinib; first compound 0.4 µM) | relative viability (CAP-232 + Crizotinib; first compound 1.265 µM) | relative viability (CAP-232 + Crizotinib; first compound 4 µM) | relative viability (CAP-232 + Crizotinib; first compound 12.65 µM) | relative viability (CAP-232 + Luminespib; first compound 0.4 µM) | relative viability (CAP-232 + Luminespib; first compound 1.265 µM) | relative viability (CAP-232 + Luminespib; first compound 4 µM) | relative viability (CAP-232 + Luminespib; first compound 12.65 µM) | relative viability (CAP-232 + Linsitinib; first compound 0.4 µM) | relative viability (CAP-232 + Linsitinib; first compound 1.265 µM) | relative viability (CAP-232 + Linsitinib; first compound 4 µM) | relative viability (CAP-232 + Linsitinib; first compound 12.65 µM) | relative viability (CAP-232; 0.4 µM) | relative viability (CAP-232; 1.265 µM) | relative viability (CAP-232; 4 µM) | relative viability (CAP-232; 12.65 µM)
1 | NCI-H2009 | 0.731 | 0.733 | 0.773 | 0.634 | 1.11 | 1.01 | 1.05 | 1.09 | 1.02 | 0.975 | 1 | 0.95 | 1.2 | 1.18 | 1.22 | 1.09 | 1.06 | 0.998 | 1 | 0.932
2 | NCI-H2023 | 0.599 | 0.426 | 0.645 | 0.251 | 0.837 | 0.548 | 0.693 | 0.292 | 0.917 | 0.725 | 0.69 | 0.232 | 0.659 | 0.615 | 0.697 | 0.249 | 0.998 | 0.883 | 1.07 | 0.329
3 | NCI-H2085 | 0.852 | 0.819 | 0.779 | 0.832 | 0.728 | 0.882 | 0.821 | 0.853 | 0.472 | 0.459 | 0.425 | 0.462 | 0.816 | 1.04 | 0.955 | 0.843 | 1.03 | 1.03 | 0.997 | 0.945
4 | NCI-H2087 | 0.985 | 0.728 | 0.886 | 0.439 | 0.929 | 0.809 | 0.967 | 0.819 | 0.187 | 0.157 | 0.146 | 0.143 | 0.894 | 0.955 | 0.924 | 0.541 | 1.02 | 0.936 | 1.08 | 0.788
5 | NCI-H2126 | 0.827 | 0.795 | 0.755 | 0.857 | 1.06 | 1.03 | 1.13 | 1.09 | 0.909 | 0.955 | 0.992 | 0.659 | 0.722 | 0.709 | 0.736 | 0.74 | 1.05 | 0.985 | 1.1 | 0.991
6 | NCI-H2228 | 0.657 | 0.389 | 0.597 | 0.709 | 0.637 | 0.407 | 0.526 | 0.461 | 0.142 | 0.128 | 0.189 | 0.177 | 0.596 | 0.581 | 0.521 | 0.646 | 1.23 | 0.976 | 1.05 | 0.829
7 | NCI-H2347 | 0.63 | 0.613 | 0.585 | 0.487 | 0.794 | 0.753 | 0.0086 | 0.544 | 0.274 | 0.493 | 0.443 | 0.471 | 0.989 | 0.967 | 1.04 | 1.01 | 1.08 | 1.04 | 1.04 | 0.948
8 | NCI-H2405 | 1.22 | 1.09 | 1.01 | 0.79 | 0.76 | 0.848 | 0.876 | 0.843 | 0.61 | 0.709 | 0.641 | 0.491 | 0.789 | 1.06 | 0.868 | 0.547 | 1.01 | 0.972 | 1.05 | 0.786
9 | NCI-H3122 | 1.07 | 1.05 | 0.883 | 0.945 | 0.274 | 0.313 | 0.308 | 0.277 | 0.0705 | 0.067 | 0.0822 | 0.0819 | 0.991 | 0.979 | 1.01 | 1.08 | 1 | 1 | 0.984 | 0.957
10 | PC-3 [JPC-3] | 1.3 | 0.741 | 0.864 | 0.741 | 1.01 | 1.02 | 0.966 | 0.985 | 0.663 | 0.661 | 0.732 | 0.538 | 1.05 | 1 | 0.902 | 0.972 | 1.09 | 1.05 | 1.07 | 0.955
11 | PC-14 | 0.793 | 0.701 | 0.725 | 0.522 | 1.02 | 0.861 | 0.933 | 0.89 | 0.26 | 0.178 | 0.183 | 0.125 | 1.01 | 0.955 | 0.955 | 0.775 | 1.12 | 0.971 | 1.04 | 0.755
12 | RERF-LC-KJ | 0.817 | 0.763 | 0.706 | 0.485 | 0.944 | 0.919 | 0.851 | 0.829 | 1.27 | 1.39 | 1 | 0.918 | 1.01 | 0.886 | 0.933 | 0.854 | 1.07 | 1 | 0.99 | 0.935
13 | SK-LU-1 | 0.744 | 0.792 | 0.761 | 0.591 | 0.689 | 0.988 | 0.781 | 0.912 | 0.198 | 0.211 | 0.183 | 0.207 | 1.06 | 1.2 | 1.15 | 1.06 | 1.09 | 1.07 | 1.12 | 0.9
14 | SK-MES-1 | 1.3 | 1.13 | 1.02 | 0.489 | 0.965 | 0.909 | 0.926 | 0.931 | 0.726 | 0.889 | 0.888 | 0.531 | 1.09 | 1.14 | 1 | 1.01 | 1.02 | 1.06 | 1.01 | 0.904
15 | SW 1573 | 0.7 | 0.867 | 0.926 | 0.309 | 0.785 | 0.803 | 0.642 | 0.81 | 0.166 | 0.323 | 0.214 | 0.161 | 0.751 | 0.781 | 0.731 | 0.683 | 0.909 | 0.928 | 1.06 | 0.495
16 | UMC-11 | 0.357 | 0.413 | 0.344 | 0.272 | 0.585 | 0.786 | 0.681 | 0.639 | 0.964 | 1.07 | 1.07 | 0.994 | 1.13 | 1 | 1.14 | 1.1 | 0.917 | 0.914 | 1.08 | 0.95

— the supplement of paper PMC10307832
